Assay [1] concerns the target T1, D-3-phosphoglycerate dehydrogenase (Homo sapiens, UniProt O43175).
T1 sequence (O43175 whole entry): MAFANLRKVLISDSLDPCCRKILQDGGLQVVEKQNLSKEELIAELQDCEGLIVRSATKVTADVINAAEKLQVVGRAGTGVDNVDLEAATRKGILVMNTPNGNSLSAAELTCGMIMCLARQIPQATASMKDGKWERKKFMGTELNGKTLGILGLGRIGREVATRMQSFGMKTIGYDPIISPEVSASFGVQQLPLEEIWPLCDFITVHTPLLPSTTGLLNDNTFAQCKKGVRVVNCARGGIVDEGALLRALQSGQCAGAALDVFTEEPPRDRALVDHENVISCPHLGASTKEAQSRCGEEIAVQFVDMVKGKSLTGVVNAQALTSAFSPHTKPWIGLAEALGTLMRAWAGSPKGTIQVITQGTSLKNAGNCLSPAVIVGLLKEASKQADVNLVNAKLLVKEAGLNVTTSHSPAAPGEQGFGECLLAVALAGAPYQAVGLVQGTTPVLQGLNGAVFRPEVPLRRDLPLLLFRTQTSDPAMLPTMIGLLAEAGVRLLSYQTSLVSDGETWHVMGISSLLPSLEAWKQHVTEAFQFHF
Kind of assay: PHGDH Enzyme Assay. To be noted: pH 7.1. How it is done: (§1) To evaluate the effects of compounds on PHGDH activity, compounds were first pre-incubated with enzyme samples in the assay buffer (25 mM HEPES, pH 7.1, 400 mM KCl, 5 μM phosphopyridoxa (PLP), 0.5 mM α-ketoglutarate, 150 μM NADH, 1 mM DTT) for 10 min at 25℃, then the reaction was started by adding L-phospho-O-serine (Pser). […] Fluorescence signals were recorded for 3 min with a kinetics mode program using on a plate reader (Synergy, Biotek).

Assay [2] deals with T2, D-3-phosphoglycerate dehydrogenase [3-314] (Homo sapiens, UniProt O43175).
T2 construct: 3-314
T2 sequence (O43175 whole entry): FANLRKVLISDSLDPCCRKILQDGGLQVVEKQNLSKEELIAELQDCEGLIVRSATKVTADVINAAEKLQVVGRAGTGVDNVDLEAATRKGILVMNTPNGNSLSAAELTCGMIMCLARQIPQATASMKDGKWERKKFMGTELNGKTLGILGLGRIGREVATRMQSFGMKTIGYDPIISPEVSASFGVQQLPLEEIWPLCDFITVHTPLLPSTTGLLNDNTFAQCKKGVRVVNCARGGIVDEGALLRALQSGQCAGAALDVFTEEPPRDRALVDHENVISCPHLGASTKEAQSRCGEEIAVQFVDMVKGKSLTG
Kind of assay: PHGDH Enzyme Assay. To be noted: pH 7.1. Here is the method:
as §1

Assay [3] concerns the target T1, D-3-phosphoglycerate dehydrogenase. Kind of assay: PHGDH SPR Assay. To be noted: pH 7.4. Here is the method: The binding affinities of compounds towards PHGDH were assayed using the SPR-based Biacore T200 instrument (GE Healthcare). PHGDH was immobilized on a CM5 sensor chip by using standard amine-coupling at 25℃ with running buffer PBS-P (20 mM phosphate buffer, […], 0.05% surfactant P-20, pH 7.4), respectively, as described previously. A reference flow cell was activated and blocked in the absence of PHGDH. […] Regeneration was achieved by extended washing with the running buffer after each sample injection.

The IC50 is the point on the concentration scale where inhibition reaches its midpoint. As a reminder, the Kd is the constant that tells how readily two partners part at equilibrium.

Regarding `O=C1N[C@H]2[C@H](CS[C@H]2CCCCC(=O)OCc2cc([N+](=O)[O-])cc(/C=N/NC(=O)c3ccc(O)cc3O)c2O)N1` [PKUMDL-WQ-2101-Biotin], the IC50 in assay [1] amounted to 49.5 µM.
In the case of `O=C(N/N=C/c1cc([N+](=O)[O-])ccc1O)c1ccc(O)cc1O` [PKUMDL-WQ-2101], the IC50 is 30.1 µM in assay [2] and 44.9 µM in assay [1]. This compound returned a Kd in assay [3] of 0.56 µM.
Consider `CCNC(=S)N/N=C\c1ccc(-c2ccc(C(=O)O)c(Cl)c2)o1` [PKUMDL-WQ-2201], for which, in assay [2], the IC50 is 35 µM. Further, the Kd in assay [3] (read-out: Kd) is 66.9 µM.
Take `Cc1c(/N=N/c2cccc(C(=O)O)c2)c(O)[nH]c(=O)c1C#N` [PKUMDL-WQ-2202]: in assay [1], the IC50 turned out to be 42 µM. In addition, the Kd in assay [3] (read-out: Kd) was 29 µM.
On to `O=C(O)CSC1=C(SCC(=O)O)C(=O)C(SCC(=O)O)=C(SCC(=O)O)C1=O` [PKUMDL-WQ-2203], for which the IC50 in assay [1] stood at 28.1 µM. The Kd in assay [3] (read-out: Kd) is 7.22 µM.

(Values after BindingDB's records for doi:10.1016/j.chembiol.2016.11.013 (Peking University, 2017).)
